target: human DGKζ (Homo sapiens (Human), UniProt Q13574); experiment: Human DGKζ kinase activity inhibition assay (ADP-Glo); assay type: biochemical; conditions: in vitro human DGKζ kinase activity inhibition assay; read-out: IC50
How it was run: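 Enzyme was C-terminally FLAG-tagged full-length recombinant human DGKζ from baculovirus-infected insect cells. Substrate preparation used octyl-β-D-glucopyranoside in 50 mM MOPS pH 7.4 with sonication; ADP generated was quantified by ADP-Glo luminescence as activity measure.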

human DGKζ, sequence (Q13574 other isoform, or with tags, fused parts or gaps): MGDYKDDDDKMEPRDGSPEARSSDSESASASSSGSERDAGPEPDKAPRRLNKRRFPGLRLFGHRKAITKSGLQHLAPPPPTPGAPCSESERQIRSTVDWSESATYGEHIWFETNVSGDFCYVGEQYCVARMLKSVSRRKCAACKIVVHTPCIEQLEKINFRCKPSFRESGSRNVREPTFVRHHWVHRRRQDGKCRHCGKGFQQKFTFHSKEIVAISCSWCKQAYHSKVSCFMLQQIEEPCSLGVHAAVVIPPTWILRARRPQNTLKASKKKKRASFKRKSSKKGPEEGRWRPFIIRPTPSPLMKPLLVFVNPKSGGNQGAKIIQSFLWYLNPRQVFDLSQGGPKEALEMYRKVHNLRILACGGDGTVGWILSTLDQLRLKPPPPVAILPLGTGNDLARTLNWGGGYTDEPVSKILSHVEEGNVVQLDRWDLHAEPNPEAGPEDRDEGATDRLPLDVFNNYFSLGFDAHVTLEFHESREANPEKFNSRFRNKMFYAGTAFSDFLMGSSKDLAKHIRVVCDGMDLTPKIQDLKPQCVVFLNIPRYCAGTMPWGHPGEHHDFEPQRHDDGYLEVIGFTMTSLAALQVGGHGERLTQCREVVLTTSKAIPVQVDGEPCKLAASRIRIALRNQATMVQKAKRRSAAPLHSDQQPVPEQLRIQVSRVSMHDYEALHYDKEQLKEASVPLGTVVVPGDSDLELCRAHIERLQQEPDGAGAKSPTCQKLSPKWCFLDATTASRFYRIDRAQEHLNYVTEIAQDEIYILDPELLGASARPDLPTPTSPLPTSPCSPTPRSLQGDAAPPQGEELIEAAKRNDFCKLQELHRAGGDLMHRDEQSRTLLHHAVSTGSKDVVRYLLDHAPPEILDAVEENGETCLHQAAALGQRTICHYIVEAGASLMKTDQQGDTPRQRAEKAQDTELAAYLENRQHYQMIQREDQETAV

Going from `CC(C(N)=O)N(c1ccc(C(F)F)cc1)c1nc(N)c(C(=O)c2ccc(Cl)cc2)s1` (racemic) [Example 244, rac-2-[N-[4-amino-5-(4-chlorobenzoyl)thiazol-2-yl]-4-(difiuoromethyl)anilino]propanamide] to `CC(C(N)=O)N(c1ccc(F)cc1)c1nc(N)c(C(=O)c2ccc(Cl)cc2)s1` (racemic) [Example 38, rac-2-(N-[4-amino-5-(4-chlorobenzoyl)thiazol-2-yl]-4-fluoro-anilino)propanamide], the IC50 falls from 30 nM to 19.3 nM (1.6-fold). The second is the more potent here.

Compared with `Cc1ccc(N(C)C(=O)COc2ccc(C(=O)c3sc(N(c4ccc(F)cc4)C(C)C(N)=O)nc3N)cc2)cc1` (racemic) [Example 139, rac-2-(N-[4-amino-5-[4-[2-(N,4-dimethylanilino)-2-oxo-ethoxy]benzoyl]thiazol-2-yl]-4-fluoro-anilino)propanamide], `CCOC(=O)COc1ccc(C(=O)c2sc(N(c3ccc(F)cc3)C(C)C(N)=O)nc2N)cc1` (racemic) [Example 81, rac-ethyl 2-[4-[4-amino-2-(4-fluoro-N-[2-amino-1-methyl-2-oxo-ethyl]anilino)thiazole-5-carbonyl]phenoxy]acetate] is 6.5-fold lower in IC50: 56.9 nM for the first, 8.71 nM for the second. The second is the more potent here.

First: CC(C(N)=O)N(c1ccc(OC(F)F)c(F)c1)c1nc(N)c(C(=O)c2ccncc2)s1 (racemic) [Example 208, rac-2-[N-[4-amino-5-(pyridine-4-carbonyl)thiazol-2-yl]-4-(difluoromethoxy)-3-fluoro-anilino]propanamide]
Second: C[C@H](C(N)=O)N(c1ccc(F)c(F)c1)c1nc(N)c(C(=O)c2ccc(OC(F)F)cc2)s1 [Example 49.2, (R)-2-(N-[4-amino-5-[4-(difluoromethoxy)benzoyl]thiazol-2-yl]-3,4-difluoro-anilino)propanamide]
The IC50 of the first is 320-fold higher: 672 nM for the first, 2.1 nM for the second.

Going from `Cc1cc(NC(=O)COc2ccc(C(=O)c3sc(N(c4ccc(F)cc4)C(C)C(N)=O)nc3N)cc2)on1` (racemic) [Example 112, rac-2-(N-(4-amino-5-[4-[2-[(3-methylisoxazol-5-yl)amino]-2-oxo-ethoxy]benzoyl]thiazol-2-yl]-4-fluoro-anilino)propanamide] to `COc1ccc(C(=O)c2sc(N(c3ccc4c(c3)OC(F)(F)O4)C(C)C(N)=O)nc2N)cc1` (racemic) [Example 212, rac-2-[[4-amino-5-(4-methoxybenzoyl)thiazol-2-yl]-(2,2-difluoro-1,3-benzodioxol-5-yl)amino]propanamide], the IC50 falls from 300 nM to 41 nM (7.3-fold).

First: CC(C(N)=O)N(c1ccc(F)c(F)c1)c1nc(N)c(C(=O)c2ccc(OC(F)F)nc2)s1 (racemic) [Example 163, rac-2-(N-[4-amino-5-[6-(difluoromethoxy)pyridine-3-carbonyl]thiazol-2-yl]-3,4-difluoro-anilino)propanamide]
Second: COc1ccc(C(=O)c2sc(N(c3ccc(F)c(F)c3)C(C)C(N)=O)nc2N)cn1 (racemic) [Example 52, rac-2-(N-[4-amino-5-(6-methoxypyridine-3-carbonyl)thiazol-2-yl]-3,4-difluoro-anilino)propanamide]
The IC50 of the first is 11-fold lower: 9 nM for the first, 99.2 nM for the second.

First: CC(C(N)=O)N(c1ccc(Cl)c(OC(F)(F)F)c1)c1nc(N)c(C(=O)c2ccccc2)s1 (racemic) [Example 236, rac-2-[N-(4-amino-5-benzoyl-thiazol-2-yl)-4-chloro-3-(trifluoromethoxy)anilino]propanamide]
Second: CC(C(N)=O)N(c1ccc(N(C)C)c(Cl)c1)c1nc(N)c(C(=O)c2ccccc2)s1 (racemic) [Example 13, rac-2-[N-(4-amino-5-benzoyl-thiazol-2-yl)-3-chloro-4-(dimethylamino)anilino]propanamide]
The IC50 of the first is 2-fold higher: 730 nM for the first, 357 nM for the second. The second is the more potent here.

Molecule `CC(C(N)=O)N(c1nc(N)c(C(=O)c2ccccc2)s1)c1ccc(F)cc1Br` (racemic) [Example 5, rac-2-(N-(4-amino-5-benzoyl-thiazol-2-yl)-2-bromo-4-fluoro-anilino)propanamide] has an IC50 of 757 nM.

From US11964953B2, “Substituted aminothiazoles as DGKzeta inhibitors for immune activation” (Bayer Aktiengesellschaft, priority 2020, dated 2024)
